Data on 14 molecules can be found in article PMC6329768, “Dinitroimidazoles as bifunctional bioconjugation reagents for protein functionalization and peptide macrocyclization” (Nature Communications, 2019).

Some results are limits rather than exact numbers.

The nature of data set [1]: Lys-Lys (or Dap-Dap) side-chain stapling of unprotected peptides with bis(1,4-dinitroimidazole) linker 5a (bis[(1,4-dinitroimidazol-2-yl)methyl] succinate, 1.2 mM), DIEA 4.0 mM; ANRORC ring-opening/ring-closing gives 1-alkyl-4-nitroimidazole linkages. As to conditions: the molecule shown is the open-chain precursor, DMSO (ca. 84%, with ca. 10% water and 6% MeCN from stock solutions), 1.0 mM, 37.0 °C, 2.0 h.

Data set [2] can be described thus: hydrolytic stability of reagents in PBS buffer pH 7.4 (HPLC). It counts as physicochemical. As to conditions: 100 mM PBS buffer, pH 7.4, 37 °C, HPLC analysis.
Protocol: Stability of N-phenyl maleimide in 100 mM PBS buffer,
pH 7.4 at 37 °C for indicated time before subjected to HPLC analysis.
at 37 °C for indicated time before subjected to HPLC analysis.
Data set [3] is described as follows: chemical stability of peptide conjugates under acidic, basic or oxidative conditions (HPLC). It counts as physicochemical. As to conditions: 10 h, conjugate 0.05 mM, three independent experiments; for stability of conjugate at pH 10.0: aqueous buffer pH 10.0, 37 °C. The protocol:
The conversion values represent means ± SDs (standard deviations) of three independent experiments The stability of protein conjugates is a major concern for bioconjugation reagents. […] Next, we investigated the stability of the (4-nitroimidazole)-thiol linkage. Thiol-maleimide and thiol-arylation conjugates are reported to degrade under acidic, basic, or oxidative conditions[25],[30],[31]. We incubated conjugate 1c' in aqueous buffer at pH 2.0, pH 10.0, or in the presence of 10 mM H2O2 for 10 h at 37 °C.
Next, we explored the application of 1,4-DNIms in Lys bioconjugation of peptides. […] HRMS analysis and NMR analysis determined that product 1d is a ε-(4-nitroimidazole)-Lys derivative (Fig. 6a, Supplementary Figs. 28–32). Next, we explored the chemoselectivity of compound 1a in DMSO via incubation with nucleophilic amino acids, including Tyr, Ser, Trp, His, Asp, and Arg. […] To sum up, 1,4-DNIms react specifically with cysteine thiols under neutral aqueous conditions, and modify lysine ε-amines through a distinct mechanism with high selectivity in organic solvents in the absence of thiols by generating stable conjugates.
Supplementary Figure 15. Stability of 4-nitroimidazole-ACA adduct 1c’ (0.05 mM) in buffers at pH 2.0, pH 10.0, or in 10 mM H2O2 at 37 °C for 10 h before subjected to HPLC analysis. Gradient used:isocratic 2% CH3CN for 5 min, then 2% to 90% CH3CN in 25 min, then isocratic 90% CH3CN for 5 min, then 90% to 2% CH3CN in 5 min. Monitor wavelength: 365 nm.
Supplementary Figure 16. Stability of NEM-2a’ conjugate (0.05 mM) in buffers at pH 2.0 and 10.0. NEM-2a’ conjugate was incubated at pH 2.0 and pH 10.0 at 37 °C for 10 h before subjected to HPLC analysis. Gradient used:isocratic 2% CH3CN for 5 min, then 2% to 90% CH3CN in 25 min, then isocratic 90% CH3CN for 5 min, then 90% to 2% CH3CN in 5 min. Monitor wavelength: 254 nm. […]

Data set [4] in a line: Cys-Cys side-chain stapling of unprotected peptides with bis(1,4-dinitroimidazole) linker 5a (bis[(1,4-dinitroimidazol-2-yl)methyl] succinate, 1.0 eq) by cine-substitution at imidazole C5; sodium ascorbate 2.0 mM. As to conditions: the molecule shown is the open-chain precursor, 100 mM HEPES buffer pH 7.0, 1.0 mM, 25.0 °C.
Data set [5] in a line: solubility in aqueous solutions. The data set is classed as physicochemical. The text has this:
Lysines are rich in natural proteins and usually solvent-exposed on protein surface, therefore representing a major competition.

For “Ac-Ala-Lys-Ser-Gln-Val-Thr-Phe-Asn-Leu-Trp-Arg-Met-Gln-Lys-Ala-OH”, the ring closure, conversion by HPLC in data set [1] (57-membered ring) was 92%.

In turn, `CC(=O)N[C@@H](C)C(=O)N[C@@H](Cn1cc([N+](=O)[O-])nc1COC(=O)CCC(=O)OCc1nc([N+](=O)[O-])cn1[N+](=O)[O-])C(=O)N[C@H](C(=O)N[C@H](C(=O)N[C@@H](Cc1ccccc1)C(=O)N[C@@H](CC(N)=O)C(=O)N[C@@H](CC(C)C)C(=O)N[C@@H](Cc1c[nH]c2ccccc12)C(=O)N[C@@H](CN)C(=O)N[C@@H](C)C(=O)O)[C@@H](C)O)[C@@H](C)O` [Ac-Ala-Dap-Thr-Thr-Phe-Asn-Leu-Trp-Dap-Ala-OH] yielded a ring closure, conversion by HPLC in data set [1] (36-membered ring) of 95%.

Consider `O=C1C=CC(=O)N1c1ccccc1` [N-phenyl maleimide], for which the “time to complete hydrolysis (yielding the maleamic acid)” value in data set [2] is reported as ≤ 2 h.

With `CC(=O)N[C@@H](CC(C)C)C(=O)N[C@H](C(=O)N[C@@H](Cc1ccccc1)C(=O)N[C@@H](CCCCn1cc([N+](=O)[O-])nc1COC(=O)CCC(=O)OCc1nc([N+](=O)[O-])cn1[N+](=O)[O-])C(=O)N[C@@H](Cc1c[nH]cn1)C(=O)N[C@@H](Cc1ccc(O)cc1)C(=O)N[C@@H](Cc1c[nH]c2ccccc12)C(=O)N[C@@H](C)C(=O)N[C@@H](CCC(N)=O)C(=O)N[C@@H](CC(C)C)C(=O)N[C@@H](CCCCN)C(=O)N[C@@H](CO)C(=O)O)[C@@H](C)O` [Ac-Leu-Thr-Phe-Lys-His-Tyr-Trp-Ala-Gln-Leu-Lys-Ser-OH], the ring closure, conversion by HPLC in data set [1] (42-membered ring) was 90%.

Regarding `CCN1C(=O)CC(SC[C@H](NC(=O)[C@H](C)NC(C)=O)C(=O)N[C@@H](C)C(=O)O)C1=O` (stereo partly shown) [N-ethyl maleimide conjugate of 2a′], in data set [3], the “stability of conjugate at pH 10.0” value is “complete hydrolysis”.

`COC(=O)[C@H](C)NC(=O)[C@H](CSc1[nH]cnc1[N+](=O)[O-])NC(=O)[C@H](C)NC(C)=O` [1c]: the “stability of conjugate under oxidative conditions” value in data set [3] (10 mM H2O2 in Na2CO3 buffer at pH 8.0, 37 °C) was “did not decompose”. The “stability of conjugate at pH 2.0” value in data set [3] (aqueous buffer pH 2.0, 37 °C) was “did not decompose”. Further, the “stability of conjugate at pH 10.0” value in data set [3] is “did not decompose”.

For `N=C(N)NCCC[C@H](NC(=O)[C@H](CSc1[nH]c(COC(=O)CCC(=O)OCc2nc([N+](=O)[O-])cn2[N+](=O)[O-])nc1[N+](=O)[O-])NC(=O)[C@@H](N)Cc1ccccc1)C(=O)NCC(=O)N[C@@H](CC(=O)O)C(=O)N[C@@H](CS)C(=O)O` [H-Phe-Cys-Arg-Gly-Asp-Cys-OH], the ring closure, conversion by HPLC in data set [4] (31-membered ring, 0.167 h) amounted to 90%.

In turn, `CC(=O)N[C@@H](C)C(=O)N[C@@H](CSc1[nH]c(COC(=O)CCC(=O)OCc2nc([N+](=O)[O-])cn2[N+](=O)[O-])nc1[N+](=O)[O-])C(=O)NCC(=O)N[C@@H](CS)C(=O)N[C@@H](C)C(=O)O` [Ac-Ala-Cys-Gly-Cys-Ala-OH] had a ring closure, conversion by HPLC in data set [4] (25-membered ring, 0.167 h) of 95%.

On to `CC(=O)N[C@@H](C)C(=O)N[C@@H](CCCCn1cc([N+](=O)[O-])nc1COC(=O)CCC(=O)OCc1nc([N+](=O)[O-])cn1[N+](=O)[O-])C(=O)N[C@H](C(=O)N[C@@H](Cc1ccccc1)C(=O)N[C@@H](CC(N)=O)C(=O)N[C@@H](CCCCN)C(=O)N[C@@H](C)C(=O)O)[C@@H](C)O` [Ac-Ala-Lys-Thr-Phe-Asn-Lys-Ala-OH], for which the ring closure, conversion by HPLC in data set [1] (33-membered ring) was 95%.

`CC(=O)N[C@@H](C)C(=O)N[C@@H](CSc1[nH]c(COC(=O)CCC(=O)OCc2nc([N+](=O)[O-])cn2[N+](=O)[O-])nc1[N+](=O)[O-])C(=O)N[C@@H](C)C(=O)N[C@@H](CCCNC(=N)N)C(=O)NCC(=O)N[C@@H](Cc1c[nH]c2ccccc12)C(=O)NCC(=O)N[C@@H](CS)C(=O)N[C@@H](C)C(=O)O` [Ac-Ala-Cys-Ala-Arg-Gly-Trp-Gly-Cys-Ala-OH]: the ring closure, conversion by HPLC in data set [4] (37-membered ring, 0.167 h) is 95%.

`CC(=O)N[C@@H](C)C(=O)N[C@@H](CCCCn1cc([N+](=O)[O-])nc1COC(=O)CCC(=O)OCc1nc([N+](=O)[O-])cn1[N+](=O)[O-])C(=O)N[C@@H](Cc1ccccc1)C(=O)N[C@@H](CC(N)=O)C(=O)N[C@@H](CC(C)C)C(=O)N[C@@H](Cc1c[nH]c2ccccc12)C(=O)N[C@@H](CCCCN)C(=O)N[C@@H](C)C(=O)O` [Ac-Ala-Lys-Phe-Asn-Leu-Trp-Lys-Ala-OH] displayed a ring closure, conversion by HPLC in data set [1] (36-membered ring) of 90%.

The molecule `CC(=O)N[C@@H](C)C(=O)N[C@@H](CSc1[nH]c(COC(=O)CCC(=O)OCc2nc([N+](=O)[O-])cn2[N+](=O)[O-])nc1[N+](=O)[O-])C(=O)N[C@@H](C)C(=O)N[C@H](C(=O)N[C@@H](CC(N)=O)C(=O)N[C@@H](CS)C(=O)N[C@@H](C)C(=O)O)[C@@H](C)O` [Ac-Ala-Cys-Ala-Thr-Asn-Cys-Ala-OH] yielded a ring closure, conversion by HPLC in data set [4] (31-membered ring, 0.167 h) of 95%.

Turning to `CC(=O)N[C@@H](C)C(=O)N[C@@H](CSc1[nH]c(COC(=O)CCC(=O)OCc2nc([N+](=O)[O-])cn2[N+](=O)[O-])nc1[N+](=O)[O-])C(=O)NCC(=O)N[C@@H](Cc1ccccc1)C(=O)N[C@@H](CCCCN)C(=O)N[C@@H](C)C(=O)N[C@@H](CS)C(=O)NCC(=O)N[C@H](C(=O)N[C@@H](CCCCN)C(=O)O)C(C)C` [Ac-Ala-Cys-Gly-Phe-Lys-Ala-Cys-Gly-Val-Lys-OH], the ring closure, conversion by HPLC in data set [4] (34-membered ring, 0.5 min) came out at 100%.

Regarding `O=S(=O)(c1c(F)c(F)c(F)c(F)c1F)c1c(F)c(F)c(F)c(F)c1F` [pf1, 6,6′-sulfonylbis(1,2,3,4,5-pentafluorobenzene)], in data set [5], the “solubility in aqueous solutions” value is < 50 µM.
